Test results: patent US20250120967A1, “TYROSINE KINASES INHIBITORS AND USES THEREOF” (GREAT NOVEL THERAPEUTICS BIOTECH & MEDICALS CORPORATION, priority 2023, published 2025)

Assays:
Assay in all cases: NCI-60 screen (SRB)
Format in all cases: cell-based
MALME-3M = settings: Homo sapiens, Melanoma
Experimental: (§1) The human tumor cell lines of the cancer screening panel are grown in RPMI 1640 medium containing 5% fetal bovine serum and 2 mM L-glutamine. For a typical screening experiment, cells are inoculated into 96 well microtiter plates in 100 μL at plating densities ranging from 5,000 to 40,000 cells/well depending on the doubling time of individual cell lines. After cell inoculation, the microtiter plates are incubated at 37° C., 5% CO2, 95% air and 100% relative humidity for 24 h prior to addition of experimental drugs. After 24 h, two plates of each cell line are fixed in situ with TCA, to represent a measurement of the cell population for each cell line at the time of drug addition (Tz). Experimental drugs are solubilized in dimethyl sulfoxide at 400-fold the desired final maximum test concentration and stored frozen prior to use. At the time of drug addition, an aliquot of frozen concentrate is thawed and diluted to twice the desired final maximum test concentration with complete medium containing 50 µg/ml gentamicin. An additional four, 10-fold or M log serial dilutions are made to provide a total of five drug concentrations plus control. Aliquots of 100 μl of these different drug dilutions are added to the appropriate microtiter wells already containing 100 μl of medium, resulting in the required final drug concentrations. Following drug addition, the plates are incubated for an additional 48 h at 37° C., 5% CO2, 95% air, and 100% relative humidity. For adherent cells, the assay is terminated by the addition of cold TCA. Cells are fixed in situ by the gentle addition of 50 μl of cold 50% (w/v) TCA (final concentration, 10% TCA) and incubated for 60 minutes at 4° C. The supernatant is discarded, and the plates are washed five times with tap water and air dried. Sulforhodamine B (SRB) solution (100 l) at 0.4% (w/v) in 1% acetic acid is added to each well, and plates are incubated for 10 minutes at room temperature. After staining, unbound dye is removed by washing five times with 1% acetic acid and the plates are air dried. Bound stain is subsequently solubilized with 10 mM trizma base, and the absorbance is read on an automated plate reader at a wavelength of 515 nm. For suspension cells, the methodology is the same except that the assay is terminated by fixing settled cells at the bottom of the wells by gently adding 50 μl of 80% TCA (final concentration, 16% TCA).

CAKI-1 = settings: Homo sapiens; CAKI-1, Renal Cancer
Experimental: as §1

COLO 205 = settings: Homo sapiens; COLO 205, Colon Cancer
Experimental: as §1

RXF 393 = settings: Homo sapiens; RXF 393, Renal Cancer
Experimental: as §1

HOP-62 = settings: Homo sapiens; HOP-62, Non-Small Cell Lung Cancer
Experimental: as §1

BT-549 = settings: Homo sapiens; BT-549, Breast Cancer
Experimental: as §1

M14 = settings: Homo sapiens; M14, Melanoma
Experimental: as §1

HS 578T = settings: Homo sapiens, Breast Cancer
Experimental: as §1

IGROV1 = settings: Homo sapiens, IGROV-1; IGROV1, Ovarian Cancer
Experimental: as §1

MDA-MB-231/ATCC = settings: Homo sapiens, Breast Cancer
Experimental: as §1

HCT-116 = settings: Homo sapiens; HCT-116, Colon Cancer
Experimental: as §1

HCC-2998 = settings: Homo sapiens; HCC-2998, Colon Cancer
Experimental: as §1

SK-MEL-5 = settings: Homo sapiens; SK-MEL-5, Melanoma
Experimental: as §1

DU-145 = settings: Homo sapiens; DU-145, Prostate Cancer
Experimental: as §1

HCT-15 = settings: Homo sapiens; HCT-15, Colon Cancer
Experimental: as §1

T-47D = settings: Homo sapiens, T47D, Breast Cancer
Experimental: as §1

NCI-H322M = settings: Homo sapiens, Non-Small Cell Lung Cancer
Experimental: as §1

UO-31 = settings: Homo sapiens; UO-31, Renal Cancer
Experimental: as §1

EKVX = settings: Homo sapiens, Non-Small Cell Lung Cancer
Experimental: as §1

HT29 = settings: Homo sapiens, HT-29; HT29, Colon Cancer
Experimental: as §1

NCI-H23 = settings: Homo sapiens; NCI-H23, Non-Small Cell Lung Cancer
Experimental: as §1

SF-295 = settings: Homo sapiens; SF-295, CNS Cancer
Experimental: as §1

NCI-H522 = settings: Homo sapiens; NCI-H522, Non-Small Cell Lung Cancer
Experimental: as §1

OVCAR-5 = settings: Homo sapiens; OVCAR-5, Ovarian Cancer
Experimental: as §1

NCI-H226 = settings: Homo sapiens; NCI-H226, Non-Small Cell Lung Cancer
Experimental: as §1

ACHN = settings: Homo sapiens, Renal Cancer
Experimental: as §1

OVCAR-8 = settings: Homo sapiens; OVCAR-8, Ovarian Cancer
Experimental: as §1

A498 = settings: Homo sapiens; A498, Renal Cancer
Experimental: as §1

PC-3 = settings: Homo sapiens; PC-3, Prostate Cancer
Experimental: as §1

Row | Structure (SMILES) | GI50 (MALME-3M) [nM] | GI50 (CAKI-1) [nM] | GI50 (COLO 205) [nM] | GI50 (RXF 393) [nM] | GI50 (HOP-62) [nM] | GI50 (BT-549) [nM] | GI50 (M14) [nM] | GI50 (HS 578T) [nM] | GI50 (IGROV1) [nM] | GI50 (MDA-MB-231/ATCC) [nM] | GI50 (HCT-116) [nM] | GI50 (HCC-2998) [nM] | GI50 (SK-MEL-5) [nM] | GI50 (DU-145) [nM] | GI50 (HCT-15) [nM] | GI50 (T-47D) [nM] | GI50 (NCI-H322M) [nM] | GI50 (UO-31) [nM] | GI50 (EKVX) [nM] | GI50 (HT29) [nM] | further results
1 | COc1cc2nccc(Oc3ccc(NC(=O)C4(NC(=O)c5ccc(F)cc5)CC4)cc3F)c2cc1OC [Cbo-02, N-(1-((4-((6,7-diMethoxyquinolin-4-yl)oxy)-3-fluorophenyl)carbamoyl)cyclopropyl)-4-fluorobenzamide] | 1740 | 1540 | 1750 | 2050 | 1820 | 1430 | 1910 | 2540 | 4480 | 1740 | 1520 | 2500 | 4010 | 3360 | 2980 | 2120 | 3940 | 2590 | 1030 | 1820 | GI50 (NCI-H23): 2060 nM; GI50 (SF-295): 2310 nM; GI50 (NCI-H522): 2070 nM; GI50 (OVCAR-5): 1910 nM; GI50 (NCI-H226): 1580 nM; GI50 (ACHN): 2140 nM; GI50 (OVCAR-8): 3030 nM; GI50 (A498): 3280 nM; GI50 (PC-3): 3940 nM
2 | COc1cc2nccc(Oc3ccc(NC(=O)C4(NC(=O)c5ccc(F)cc5)CC4)cc3F)c2cc1Oc1ccc(N)cc1F [Cbo-10] | 313 | 276 | 931 | > 100000 | 3480 | 2410 | 1490 | 5320 | 714 | 4430 | 2630 | 6040 | 6970 | 1700 | 2410 | 1650 | 518 | 1810 | 488 | 413 | GI50 (NCI-H23): 1040 nM; GI50 (SF-295): 304 nM; GI50 (NCI-H522): 450 nM; GI50 (OVCAR-5): 644 nM; GI50 (NCI-H226): 5290 nM; GI50 (ACHN): 683 nM; GI50 (OVCAR-8): > 100000 nM; GI50 (A498): > 100000 nM; GI50 (PC-3): > 100000 nM
3 | COc1cc2nccc(Oc3ccc(NC(=O)C4(C(=O)Nc5ccc(F)cc5)CC4)cc3F)c2cc1Oc1ccc(N)cc1F [Cbo-23] | 298 | 192 | 283 | 103 | 1200 | 2270 | 459 | 148 | 264 | 981 | 592 | 2280 | 1380 | 429 | 315 | 617 | 444 | 316 | 389 | 2150 | GI50 (NCI-H23): 339 nM; GI50 (SF-295): 66.9 nM; GI50 (NCI-H522): 330 nM; GI50 (OVCAR-5): 389 nM; GI50 (NCI-H226): 276 nM; GI50 (ACHN): 292 nM; GI50 (OVCAR-8): 2060 nM; GI50 (A498): 459 nM; GI50 (PC-3): 1600 nM
